Measured values: patent US20200247815A1, “PYRAZOLYL-CONTAINING TRICYCLIC DERIVATIVE, PREPARATION METHOD THEREFOR AND USE THEREOF” (Jiangsu Hansoh Pharmaceutical Group Co., Ltd., priority 2017, published 2020)

What was measured:
[1] = Pharmacokinetics assay in mice (oral, plasma); assay type: in vivo, Balb/c Mouse; settings: for Exposure in mouse plasma: dose of 50 mg/kg, oral; for Cmax / MRT / Tmax / half-life / AUC(0-t): mouse, male Balb/c mice, PO 50 mg/kg, plasma; for AUC(0-t): read-out: AUC0-24
Protocol: Balb/c Mouse was used as the test animal. The pharmacokinetic behavior of compounds of Example 1, 2 and 7 administrated orally was studied in mice (plasma).
170 g of PEG400 and 20 g of Solutol HS-15 were added to a 250 mL glass flask, and then 10 mL of NMP was added. The solution was mixed well by ultrasound for 10 minutes to obtain a clear solution.
11.2 mg of the compound of Example 1, 10.8 mg of the compound of Example 2 and 9.8 mg of the compound of Example 7 were weighted to a 4 mL glass flasks respectively, […], 2.160 mL and […] of the above solution were treated by ultrasound for 10 minutes to obtain a colorless clear solution with a concentration of 5 mg/mL.
After fasting overnight, the male Balb/c mice were administrated with the compounds (PO), the dose was 50 mg/kg, and the administration volume was 10 mL/kg.
Blood was taken before administration and at 0.25, 0.5, 1, 2, 4, 6, 8 and 24 hours after administration. The blood samples were stored in EDTA-2K tubes, and centrifuged for 6 minutes to separate the blood plasma. The plasma samples were stored at −80° C.

[2] = tested on: human pancreatic cancer cell MiaPaca 2 xenograft (CDX) model; test: Tumor inhibition experiment in MiaPaca 2 xenograft model; assay type: in vivo, BALB/c nude mice
Protocol: BALB/c nude mice were used as test animals. In vivo pharmacodynamic test was carried out in human pancreatic cancer cell MiaPaca 2 xenograft (CDX) model to evaluate the antitumor effect of the test compound.
MiaPaca 2 cells were obtained from the cell bank. After recovery, the cells were added to a DMEM medium (containing 10% FBS, 1% Glu and 1% P/S), and incubated in the CO2 incubator (the incubator temperature was 37° C., and the CO2 concentration was 5%). The cells were subjected to passage after spreading 80-90% of the bottom of the culture flask. After passage, the cells were incubated in the CO2 incubator. This process was repeated until the number of cells met the required by in vivo pharmacological inoculation. Cells in log phase were collected, and counted by the automatic cell counter. The cells were re-suspended with PBS and Matrigel (1:1 by volume) based on the counting results to obtain a cell suspension (cell density: […]), which was placed in an ice box.
Female BALB/c nude mice (6-8 weeks old, body weight: 18-22 grams) were used as test animals. The mice were maintained in individually ventilated cages (5 mice per cage) in a special pathogen-free environment. All cages, padding and water were disinfected before use. All animals had free access to standard certified commercial laboratory diets. The nude mice were labeled with disposable ear tags before the experiment. The skin of the inoculated area was sterilized with 75% medical alcohol before inoculation. Each mouse was subcutaneously inoculated with 0.1 ml (containing 8*10^6 cells) of MiaPaca 2 tumor cells on the right back. Administration was started when the average tumor volume reached 100-200 mm^3. The test compound was administrated intragastrically daily. The tumor volume (mm^3) was measured with vernier caliper twice a week. Calculation formula: V=0.5*D*d*d, wherein D and d refer to the major and minor diameter of the tumor, respectively. The anti-tumor efficacy was determined by dividing the average tumor increase volume of compound-treated animals by the average tumor increase volume of untreated animals. Calculation formula of tumor inhibition rate: TGI (%)=1−[(Vt−V0)administration group/(Vt−V0)solvent control group]*100%. All animals were euthanized after the experiment.

[3] = biological target: T1, hERG potassium channel (Homo sapiens, UniProt Q12809); test: hERG potassium channel inhibition activity test (Qpatch, CHO-hERG cells); assay type: cell-based
T1 construct: expressed in transfected cells; host or cells: CHO-hERG cells
T1 sequence (Q12809 whole entry): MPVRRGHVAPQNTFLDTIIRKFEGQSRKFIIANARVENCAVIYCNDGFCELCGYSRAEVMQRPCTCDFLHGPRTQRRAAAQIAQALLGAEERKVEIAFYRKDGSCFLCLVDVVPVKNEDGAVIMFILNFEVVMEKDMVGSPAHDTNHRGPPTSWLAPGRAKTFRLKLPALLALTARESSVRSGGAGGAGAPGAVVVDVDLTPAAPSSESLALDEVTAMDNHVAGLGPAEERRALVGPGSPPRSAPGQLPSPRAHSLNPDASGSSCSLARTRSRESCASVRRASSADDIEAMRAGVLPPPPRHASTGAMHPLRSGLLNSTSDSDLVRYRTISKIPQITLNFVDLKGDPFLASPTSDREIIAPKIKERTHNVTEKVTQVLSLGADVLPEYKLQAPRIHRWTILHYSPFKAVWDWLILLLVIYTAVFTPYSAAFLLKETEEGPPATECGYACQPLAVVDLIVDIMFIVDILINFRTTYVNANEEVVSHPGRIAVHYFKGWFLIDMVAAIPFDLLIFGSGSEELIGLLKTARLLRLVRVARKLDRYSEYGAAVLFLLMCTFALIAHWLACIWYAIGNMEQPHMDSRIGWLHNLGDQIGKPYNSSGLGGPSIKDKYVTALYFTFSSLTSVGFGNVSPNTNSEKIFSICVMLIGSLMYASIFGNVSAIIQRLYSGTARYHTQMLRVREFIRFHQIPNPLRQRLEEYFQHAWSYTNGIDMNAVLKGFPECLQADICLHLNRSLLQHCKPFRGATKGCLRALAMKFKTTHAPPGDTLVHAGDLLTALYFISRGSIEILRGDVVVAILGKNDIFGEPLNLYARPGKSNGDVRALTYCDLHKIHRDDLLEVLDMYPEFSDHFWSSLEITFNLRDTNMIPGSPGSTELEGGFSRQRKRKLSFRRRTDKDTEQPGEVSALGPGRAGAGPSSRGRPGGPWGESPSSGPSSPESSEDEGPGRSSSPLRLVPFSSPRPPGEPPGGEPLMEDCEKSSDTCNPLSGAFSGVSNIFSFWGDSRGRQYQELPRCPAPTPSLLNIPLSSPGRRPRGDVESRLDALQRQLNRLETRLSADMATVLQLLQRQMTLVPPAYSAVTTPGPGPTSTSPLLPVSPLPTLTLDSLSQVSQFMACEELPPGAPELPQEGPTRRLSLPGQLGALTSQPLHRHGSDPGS
Protocol: 4.1.1 CHO-hERG cells were cultured in a 175 cm2 culture flask. After the cell density reached 60˜80%, the culture solution was removed. The cells were washed with 7 mL of PBS once, and dissociated with 3 mL of Detachin.
4.1.2 After completion of dissociation, the cells were neutralized with 7 mL of culture solution. The solution was centrifuged, and the supernate was removed. The cells were resuspended in 5 mL of culture solution. The cell indensity is ensured as […].
Single cell sealing impedance and formation of whole-cell mode were automatically performed by Qpatch instrument. After obtaining the whole-cell recording mode, the cell was clamped at −80 mV. The cell first underwent pre-voltage of −50 mV for 50 msec, then underwent depolarization stimulation at +40 mV for 5 sec, and then underwent repolarization at −50 mV for 5 sec. and then the voltage returned to −80 mV. The cell underwent the stimulation at the voltage every 15 sec, and the data were recorded for 2 min, then extracellular fluid was administrated, and then the data were recorded for 5 min. Then, the administration process begun. The concentration of the test compound started from the lowest concentration, each test concentration was administrated for 2.5 min. At least three cells were tested for each concentration.
4.4.1 20 mM mother liquor of the compound was diluted with extracellular fluid, 5 uL of 20 mM mother liquor of the compound was added with 2495 uL of extracellular fluid to obtain a concentration of 40 uM (500-fold dilution). The solution was subjected to a 3-fold serial dilution with extracellular fluid containing 0.2% DMSO to obtain a required final concentration.
This concentration of DMSO had no effect on hERG potassium channel.
The experimental data was analyzed by XLFit software.

[4] = 50 mg/kg QD × 16 d, intragastric, Day 16
[5] = 50 mg/kg BID × 3 w, intragastric
[6] = 100 mg/kg QD × 3 w, intragastric

In the case of `C[C@@H](NC(=O)c1cc2cc3c(-c4ccncc4)n[nH]c3cc2[nH]1)c1ccccc1` [Example 1, (R)—N-(1-phenylethyl)-3-(pyridin-4-yl)-1,7-dihydropyrrolo[3,2-f]indazole-6-carboxamide], the “Exposure in mouse plasma” value [1] is reported as “good exposure”, the Cmax [1] is reported as 1310 ng/mL and the MRT [1] is reported as 8.99 h. It also gave a Tmax [1] of 0.5 h, a half-life [1] of 6.59 h and an AUC(0-t) [1] of 14700 ng·h/mL. The “Tumor volume (Mean ± SD) Day 0” value ([2]; 50 mg/kg QD × 16 d, intragastric) was 154 ± 29 mm^3, the “TGI Day 16” value [2, 4] was 86.63% and the “Tumor volume (Mean ± SD) Day 16” value [2, 4] was 214 ± 97 mm^3. The “ΔT/ΔC Day 16” value [2, 4] was 13.37% and the “Inhibition of growth of xenograft” value ([2]; 50 mg/kg QD, continuous oral administration for 16 days) was “significantly inhibit the growth”.
In the case of `C[C@@H](NC(=O)c1nc2cc3c(-c4ccncc4)n[nH]c3cc2[nH]1)c1ccccc1` [Example 2, (R)—N-(1-phenylethyl)-3-(pyridin-4-yl)-1,7-dihydroimidazo[4,5-f]indazole-6-carboxamide], the “Inhibition effect on cardiac hERG potassium channel” value [3] is reported as “no inhibition effect”, the IC50 ([3]; CHO-hERG cells, highest test concentration 40 uM, read-out: hERG (inhibition effect on hERG current)) is reported as > 40 µM and the “Exposure in mouse plasma” value [1] is reported as “good exposure”. For the same molecule, the Cmax [1] was 15900 ng/mL, the MRT [1] was 2.44 h and the Tmax [1] was 2 h. For the same molecule, the half-life [1] was 0.82 h, the AUC(0-t) [1] was 50400 ng·h/mL and the “Tumor volume (Mean ± SD) Day 0” value [2, 5] was 156 ± 27 mm^3. For the same molecule, the “TGI Day 21” value [2, 5] was 85.07%, the “Tumor volume (Mean ± SD) Day 21” value [2, 5] was 253 ± 32 mm^3 and the “ΔT/ΔC Day 21” value [2, 5] was 14.93%. The “Inhibition of growth of xenograft” value ([2]; 50 mg/kg BID, continuous oral administration for 21 days) was “significantly inhibit the growth”, the “Tumor volume (Mean ± SD) Day 0” value [2, 6] was 156 ± 24 mm^3 and the “TGI Day 21” value [2, 6] was 91.14%. The “Tumor volume (Mean ± SD) Day 21” value [2, 6] was 214 ± 104 mm^3, the “ΔT/ΔC Day 21” value [2, 6] was 8.86% and the “Inhibition of growth of xenograft” value ([2]; 100 mg/kg QD, continuous oral administration for 21 days) was “significantly inhibit the growth”.
